# Measured values as given in patent publication US7491383B2, “Compositions having enhanced pharmacokinetic characteristics” (Allergan, Inc., priority 2001, dated 2009).
# Like-named read-outs stand apart in the source and are kept apart here.
# Columns and labels:
# Intra Ocular Pressure = conditions: 0.131% Brimonidine and 0.126% linoleic acid
# Description: The treatment is an ion pair formulation of 0.131% Brimonidine and 0.126% linoleic acid.
# [1] = system: Rabbit Intraocular Pressure; conditions: 20 μL of 0.2% on cornea, mean ± S.E.M., n = 8
# Description: In this study, the animals were placed into three groups consisting of a mix of age, size and sex.
# One group of animals (both sexes) were used per screening study.
# The following general procedure for administering the test compound employed in this study is presented below: • 1. Make sure that the 0.25% proparacaine Opthetic® mixture (topical local anesthetic), test compounds, and commercially available treats are available. • 2. Turn on the Digilab Modular One™ Pneuma Tonometer (pneumatonometer) [BioRad, Cambridge, Mass.]; it needs approximately 15 minutes to warm up. Turn on gas supply or air pump. • 3. Hold probe vertically with the point tip down and press “calibration check” for “zero”. • 4. Wipe the pneumatonometer probe with an alcohol swab, and inspect the tip membrane for holes. • 5. Set the external calibration device (air or water manometer) to 25 mm Hg, place the pneumatonometer probe in the calibration device to an ensure that it corresponded to 25±2 mm Hg. • 6. Obtain a rabbit. Make sure the recording data sheets are at hand. • 7. Gently restrain the rabbit via a commercial restrainer or a cotton towel. Measure the pupil diameter with the specialized ruler for each eye and record the values on the sheets provided. If the eyes are too dark to obtain a value by this method, a specialized penlight may be used. Obtain a pupil diameter measurement by shining the penlight on the cornea for one second. • 8. Slide the upper eyelid up the thumb and visually assess and score the degree of ocular surface redness. Record the value for each eye on the sheet provided. • 9. Put one drop of 0.25% proparacaine Opthetic® (50:50 mix of 0.5% proparacaine Opthetic®+Cellufresh®) on the surface of each eye. Wait one or more minutes for ophthetic to take effect. • 10. Place the pnematonometer tip on one eye at the site where the curvature of the cornea is greatest. Let the probe shank travel to the black line, not the red line. Persist until a stable reading with the standard deviation below 1.0 is obtained. Repeat the procedure for the contralateral eye. Record the data. (Note: If the animal is upset by the restraint, the reading will be artificially high and cannot be used. Use gentle restraint). • 11. At the end of the 0, 6, 24, 30, 48, 54, 72, 78 and 96 hour measurements, use an automatic pipette to apply 20 μL of the test compound to the surface of the cornea of one eye. After the 102 hour measurements, the eyes will be washed out with Refresh® and Prefrin®. • 12. Give the animal a treat and return the animal to its cage. • 13. Repeat steps 7 to 11 on the remaining animals in the group.
# The following general procedure for measuring the effects of the test compound employed in this study is as follows: a reading is conducted at 0, 2, 4, 6, 24, 26, 28, 30, 48, 50, 52, 54, 72, 74, 76, 78, 96, 98, 100, and 102 hours. The pneumatonometer is calibrated before use with a manometer and the probe tip is wiped with an alcohol swab. One drop of 0.25% proparacaine Opthetic®, a corneal anesthetic, is placed on the cornea. Allow sufficient time (approximately 1 minute) for it to anesthetize the cornea before placing the probe on the eye. The eye is gently opened by the person doing the tonometer reading. The probe is placed on the cornea at the point of greatest curvature and a stable reading is obtained. The probe is held parallel to the floor and perpendicular to the line of the rabbit's sight. The reading is repeated until a reasonable reading can be obtained. The piston should be between the red and black lines or at the black line on the probe.
# monkeys (sedation) = system: monkeys (sedation)
# Protocol: This study involved cross overs and a one-week wash out in between the administration of the various compounds.
# As done in a previous experiments, the following method was followed: • 1. 6 trained monkeys were placed in chairs and allowed to acclimate for approximately 30 minutes. • 2. Individual monkeys were brought into the “testing room” where they were allowed to adjust to the new environment for approximately 2 minutes. […] Sedation scores were recorded on an observation sheet. • 3. The monkey were returned to the group of animals assigned to this study. • 4. 2 baseline readings were done at T-0.5 and 0 hour. After the 0 hour reading one drop of the test compound was administered to the right eye. • 5. Steps 2 & 3 were repeated at T=0.5, 1, 2, 3 and 4 hour. • 6. Animals were monitored until they recover from effects of the drug. • 7. […] Test Compound Administration:
# The scoring was conducted for each animal for the different test compounds. The average results are shown on table 1.
compound,measurement,setting,value
Brc1c(NC2=NCCN2)ccc2nccnc12.CCCCCC=CCC=CCCCCCCCC(=O)O [Brimonidine-linoleic acid],percent change with time of Intra Ocular Pressure,Intra Ocular Pressure; 0 hr (administration of complex),0.0 mm Hg
same,percent change with time of Intra Ocular Pressure,Intra Ocular Pressure; 1 hr after administration,−10.4 mm Hg
same,percent change with time of Intra Ocular Pressure,Intra Ocular Pressure; 2 hr after administration,−16.0 mm Hg
same,percent change with time of Intra Ocular Pressure,Intra Ocular Pressure; 4 hr after administration,−9.5 mm Hg
same,percent change with time of Intra Ocular Pressure,Intra Ocular Pressure; 6 hr after administration,−9.4 mm Hg
same,INTRAOCULAR PRESSURE,[1]; time 0 hr (reading before first dose),25.8 ± 1.2 mm Hg
same,INTRAOCULAR PRESSURE,[1]; time 2 hr,17.1 ± 1.0 mm Hg
same,INTRAOCULAR PRESSURE,[1]; time 4 hr,21.1 ± 1.0 mm Hg
same,INTRAOCULAR PRESSURE,[1]; time 6 hr (dosed again after reading),23.9 ± 1.0 mm Hg
same,INTRAOCULAR PRESSURE,[1]; time 24 hr (dosed after reading),25.6 ± 0.5 mm Hg
same,INTRAOCULAR PRESSURE,[1]; time 26 hr,19.9 ± 0.6 mm Hg
same,INTRAOCULAR PRESSURE,[1]; time 28 hr,22.9 ± 0.8 mm Hg
same,INTRAOCULAR PRESSURE,[1]; time 30 hr (dosed after reading),23.0 ± 1.1 mm Hg
same,INTRAOCULAR PRESSURE,[1]; time 48 hr (dosed after reading),26.5 ± 1.0 mm Hg
same,INTRAOCULAR PRESSURE,[1]; time 50 hr,20.4 ± 0.6 mm Hg
same,INTRAOCULAR PRESSURE,[1]; time 52 hr,23.4 ± 0.7 mm Hg
same,INTRAOCULAR PRESSURE,[1]; time 54 hr (dosed after reading),24.1 ± 0.8 mm Hg
same,INTRAOCULAR PRESSURE,[1]; time 72 hr (dosed after reading),26.8 ± 0.9 mm Hg
same,INTRAOCULAR PRESSURE,[1]; time 74 hr,21.1 ± 0.8 mm Hg
same,INTRAOCULAR PRESSURE,[1]; time 76 hr,23.9 ± 1.1 mm Hg
same,INTRAOCULAR PRESSURE,[1]; time 78 hr (dosed after reading),25.2 ± 0.9 mm Hg
same,INTRAOCULAR PRESSURE,[1]; time 96 hr (dosed after reading),27.9 ± 1.1 mm Hg
same,INTRAOCULAR PRESSURE,[1]; time 98 hr,20.1 ± 1.3 mm Hg
same,INTRAOCULAR PRESSURE,[1]; time 100 hr,23.9 ± 0.7 mm Hg
same,INTRAOCULAR PRESSURE,[1]; time 102 hr,25.3 ± 1.6 mm Hg
"tartrate of 5-bromo-6-(2-imidozolin-2-ylamino) quinoxaline [Brimonidine Tartrate, reference compound]",sedation compared with the other test compounds (in words),"monkeys (sedation); 0.2%, one drop right eye",more sedation than dosing with Brimonidine-linoleic acid
same,"SEDATION SCORE (average, scale S=0 to S=4)","monkeys (sedation); 0.2%, one drop right eye, time 0 hr (baseline, before dosing)",0.8
same,"SEDATION SCORE (average, scale S=0 to S=4)","monkeys (sedation); 0.2%, one drop right eye, time 0.5 hr",0.8
same,"SEDATION SCORE (average, scale S=0 to S=4)","monkeys (sedation); 0.2%, one drop right eye, time 1 hr",1.7
same,"SEDATION SCORE (average, scale S=0 to S=4)","monkeys (sedation); 0.2%, one drop right eye, time 2 hr",2.6
same,"SEDATION SCORE (average, scale S=0 to S=4)","monkeys (sedation); 0.2%, one drop right eye, time 3 hr",2.5
same,"SEDATION SCORE (average, scale S=0 to S=4)","monkeys (sedation); 0.2%, one drop right eye, time 4 hr",2.7
same,"SEDATION SCORE (average, scale S=0 to S=4)","monkeys (sedation); 0.2%, one drop right eye, time −0.5 hr (baseline)",0.7
same,observed state of the monkeys on average,monkeys (sedation); usually from the 2-hour time point to the end of observations,sleepy and inactive with heavy eyes
